The values that follow are results of earlier work, collected in patent US20110189283A1, “APPETISING MEDICAMENTS FOR ORAL ADMINISTRATION IN SOLID FORM FOR PREVENTION AND/OR TREATMENT OF CARDIAC INSUFFICIENCY IN ANIMALS” (VIRBAC, priority 2008, published 2011).

For series [1] the following is noted: administered during or shortly after feeding.
In series [2] the test system is phosphodiesterase type III. The settings on record: after oral administration.

Turning to `COc1ccc(-c2nc3ccc(C4=NNC(=O)CC4C)cc3[nH]2)cc1` (stereo not drawn) [pimobendan, 4,5-dihydro-6-[2-(4-methoxyphenyl)-1H-benzimidazol-5-yl]-5-methyl-3(2H)-pyridazinone], in series [1], the “effect of feeding on bioavailability” value was “considerably reduced”. Further, the “duration of positive inotropic effects” value in series [2] is 8 h.

With `CC(=O)S[C@@H]1CC2=CC(=O)CC[C@]2(C)[C@H]2CC[C@@]3(C)[C@@H](CC[C@@]34CCC(=O)O4)[C@H]12` [spironolactone], for the setting “dogs”, the “dose administered found in the feces” value is recorded as 70% and the “dose administered found in the urine” value was 20%. Besides, where the note is “multiple oral administrations”, the “time to state of equilibrium” value is given as 2 days. Under “multiple oral administrations of 2 mg per kg for 10 consecutive days”, the accumulation entry is “no accumulation is observed”. Further, where the note is “oral”, the “effect of simultaneous taking of foods on bioavailability” value is “considerably increases”. Under “oral administration of 2 to 4 mg/kg”, the “absorption versus amount administered” value is “increases linearly”. Besides, under “to 7α-thiomethylspironolactone and canrenone, dogs”, the “metabolism by the liver” value is “rapidly and completely metabolized”.
